Counter-ions that a name gives are not always drawn. Like-named read-outs stand apart in the source and are kept apart here. Each block holds one molecule with its values, some of them ahead of it.
How the values were obtained:
[1] = Lipid lowering in the normolipaemic golden hamster; format: in vivo, Goldhamster; conditions: compared with control group fed without test substance
Description: III. Lipidsenkung am normolipämischen Goldhamster.
Diese Bestimmung wurde nach der in J. Lipid. Res. 38, 564-575, (1997) beschriebenen Methode durchgeführt. Am Ende des Versuchs wurde Gesamtcholesterol, β-Lipoprotein-Cholesterol sowie HDL-Cholesterol bestimmt und mit den Werten einer ohne Testsubstanz gefütterten Kontrollgruppe verglichen.

[2] = system: 2,3-Epoxisqualen-Lanosterol-Cyclase; assay: In-vivo effect in the rat after oral administration: 2,3-epoxysqualene level in the liver; parameters: species or system Ratte
Procedure: II. Messung der in-vivo Wirkung an der Ratte nach oraler Gabe
Die Inhibierung des Enzyms 2,3-Epoxisqualen-Lanosterol-Cyclase bewirkt eine Erhöhung der 2,3-Epoxisqualenspiegel in Leber und Plasma. Die Menge an gebildetem 2,3-Epoxisqualen dient daher als direktes Maß für die Wirkstärke am Ganztier.Die Bestimmung wurde nach der in J. Lipid. Res. 38, 564-575, [1997] beschriebenen Methode nach t = 3 bzw. 8 Stunden nach Substanzgabe mit Konzentrationen von c = 0.01, 0.03, 0.1, 0.3 und 1.0 mg/kg durchgeführt. In der folgenden Tabelle 3 sind beispielhaft die Ergebnisse für die vorstehend erwähnten Substanzen A, B, C, D, E, G, H, I und K angegeben.

[3] = molecular target: T1, ^14C-Acetat-Einbau in die mit Digitonin fällbaren Steroide (Homo sapiens, UniProt P48449); assay: Inhibition of 14C-acetate incorporation into digitonin-precipitable steroids; format: cell-based; conditions: read-out: Prozentwerte, um die die Verbindungen den ^14C-Acetat-Einbau hemmen
T1 sequence (P48449 2-732): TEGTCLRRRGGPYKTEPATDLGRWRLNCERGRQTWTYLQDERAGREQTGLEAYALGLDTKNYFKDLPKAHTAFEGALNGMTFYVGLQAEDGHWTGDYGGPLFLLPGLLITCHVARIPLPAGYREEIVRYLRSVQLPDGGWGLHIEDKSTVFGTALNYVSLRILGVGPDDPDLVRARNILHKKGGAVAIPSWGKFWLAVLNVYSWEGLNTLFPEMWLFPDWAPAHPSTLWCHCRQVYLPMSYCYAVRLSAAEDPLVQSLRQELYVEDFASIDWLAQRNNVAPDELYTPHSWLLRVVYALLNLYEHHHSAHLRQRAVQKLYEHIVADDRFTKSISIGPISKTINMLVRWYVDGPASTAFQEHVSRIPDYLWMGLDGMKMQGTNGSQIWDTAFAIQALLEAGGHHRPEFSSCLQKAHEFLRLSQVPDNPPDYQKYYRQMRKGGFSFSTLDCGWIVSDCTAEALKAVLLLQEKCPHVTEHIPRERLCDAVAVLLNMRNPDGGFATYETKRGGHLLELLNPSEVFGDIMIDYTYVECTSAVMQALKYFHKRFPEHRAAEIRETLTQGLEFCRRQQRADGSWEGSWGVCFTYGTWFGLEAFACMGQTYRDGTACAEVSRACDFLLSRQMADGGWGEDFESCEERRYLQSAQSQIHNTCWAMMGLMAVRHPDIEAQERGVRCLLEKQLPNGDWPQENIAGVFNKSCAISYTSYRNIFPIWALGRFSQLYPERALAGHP
Description: I. Messung der Hemmung des ^14C-Acetat-Einbaus in die mit Digitonin fällbaren Steroide:
Die Untersuchung der Hemmwirkung wurde nach der in J. Lipid. Res. 37, 148-157 [1996] beschriebenen Methode bei Testkonzentrationen von 10^-8 und 10^-9 Mol/l durchgeführt.
Die Prozentwerte, um die obigen Verbindungen den ^14C-Acetat-Einbau hemmen, sind in Tabelle 1 angegeben.

Pen.notatum CBS 19746 = assay: Fungistatic effect, serial dilution test (microtitre system); format: cell-based; conditions: Penicillium chrysogenum
Procedure: (§1) IV. Bestimmung der fungistatischen Wirkung
(§2) Die fungistatische Wirkung wurde über den Reihenverdünnungstest (Mikrotitersystem) bestimmt. Als Nährmedium diente Sabouraud-Bouillon. Das Inoculum betrug ca. 10^4 bis 10^5 KBE/ml (KBE = koloniebildende Einheiten); die Bebrütungszeit betrug 2 bis 4 Tage bei 26°C.
(§3) Es wurde die niedrigste Konzentration, die sichtbares Wachstum nicht mehr zuließ (minimale Hemmkonzentration MHK), bestimmt.
(§4) Geprüft wurden die vorstehend erwähnten Verbindungen A, B, D, E, F, H, I, K, L und M. Die Ergebnisse sind in der folgenden Tabelle 5 zusammengefaßt. Die MHK ist in µg/ml angegeben.

[4] = system: Sacch. carlsbergensis ATCC 9080; assay: as above; format: cell-based; conditions: Saccharomyces pastorianus
Procedure: as §1, §2, §3, §4

Rhod. rubra 49 = assay: as above; format: cell-based; conditions: read-out: MHK
Procedure: as §1, §2, §3, §4

Asp. niger ATCC 16404 = assay: as above; format: cell-based; conditions: Aspergillus niger
Procedure: as §1, §2, §3, §4

[5] = system: Trich. mentagrophytes ATCC 9129; assay: as above; format: cell-based; conditions: Trichophyton mentagrophytes
Procedure: as §1, §2, §3, §4

[6] = system: Cand. albicans ATCC 10231; assay: as above; format: cell-based; conditions: Candida albicans
Procedure: as §1, §2, §3, §4

Compound: Cc1ccc(OC(=O)N2CCC(Cc3ccc(CN(C)C)cc3)CC2)cc1.Cl [K, 4-[4-(Dimethylaminomethyl)benzyl] -N-(4-methylphenoxy)-carbonylpiperidin-hydrochlorid]
Gesamtcholesterol ([1]; Dosis 54.2 mg/kg/Tag): -6.8%
HDL-Cholesterol ([1]; Dosis 54.2 mg/kg/Tag): 2.3%
β-Lipoprotein-Cholesterol ([1]; Dosis 54.2 mg/kg/Tag): -21.2%
2,3-Epoxysqualen-Konzentration in der Leber (Ratte) ([2]; c = 0.1 mg/kg, t = 3 h): 0.4 µg/g
2,3-Epoxysqualen-Konzentration in der Leber (Ratte) ([2]; c = 0.1 mg/kg, t = 8 h): 0.4 µg/g
2,3-Epoxysqualen-Konzentration in der Leber (Ratte) ([2]; c = 1.0 mg/kg, t = 3 h): 24.0 µg/g
2,3-Epoxysqualen-Konzentration in der Leber (Ratte) ([2]; c = 1.0 mg/kg, t = 8 h): 5.5 µg/g
inhibition at 0.001 µM [3]: 49%
inhibition at 0.01 µM [3]: 82%
MIC (Pen.notatum CBS 19746; CBS19746, read-out: MHK): 256 µg/mL
MIC ([4]; ATCC9080, read-out: MHK): 512 µg/mL
MIC (Rhod. rubra 49): 64 µg/mL
MIC (Asp. niger ATCC 16404; ATCC16404, read-out: MHK): 64 µg/mL
MIC ([5]; ATCC9129, read-out: MHK): 8 µg/mL
MIC ([6]; ATCC10231, read-out: MHK): 64 µg/mL

Compound: CN(C)Cc1ccc(CC2CCN(C(=O)Oc3ccc(Cl)cc3)CC2)cc1 [Verbindung H, N-(4-Chlorphenoxy)carbonyl-4-[4-(dimethylaminomethyl)-benzyl]piperidin-hydrochlorid]
Gesamtcholesterol ([1]; Dosis 6.5 mg/kg/Tag): -8.3%
HDL-Cholesterol ([1]; Dosis 6.5 mg/kg/Tag): -3.4%
β-Lipoprotein-Cholesterol ([1]; Dosis 6.5 mg/kg/Tag): -13.0%
Gesamtcholesterol ([1]; Dosis 19.9 mg/kg/Tag): -11.0%
HDL-Cholesterol ([1]; Dosis 19.9 mg/kg/Tag): -8.2%
β-Lipoprotein-Cholesterol ([1]; Dosis 19.9 mg/kg/Tag): -13.2%
Gesamtcholesterol ([1]; Dosis 62.3 mg/kg/Tag): -32.1%
HDL-Cholesterol ([1]; Dosis 62.3 mg/kg/Tag): -28.5%
β-Lipoprotein-Cholesterol ([1]; Dosis 62.3 mg/kg/Tag): -33.7%
2,3-Epoxysqualen-Konzentration in der Leber (Ratte) ([2]; c = 0.1 mg/kg, t = 3 h): 1.0 µg/g
2,3-Epoxysqualen-Konzentration in der Leber (Ratte) ([2]; c = 0.1 mg/kg, t = 8 h): 0.8 µg/g
2,3-Epoxysqualen-Konzentration in der Leber (Ratte) ([2]; c = 1.0 mg/kg, t = 3 h): 56.3 µg/g
2,3-Epoxysqualen-Konzentration in der Leber (Ratte) ([2]; c = 1.0 mg/kg, t = 8 h): 20.7 µg/g
inhibition at 0.001 µM [3]: 45%
inhibition at 0.01 µM [3]: 80%
MIC (Pen.notatum CBS 19746; CBS19746, read-out: MHK): 64 µg/mL
MIC ([4]; ATCC9080, read-out: MHK): 128 µg/mL
MIC (Rhod. rubra 49): 16 µg/mL
MIC (Asp. niger ATCC 16404; ATCC16404, read-out: MHK): 32 µg/mL
MIC ([5]; ATCC9129, read-out: MHK): 1 µg/mL
MIC ([6]; ATCC10231, read-out: MHK): 64 µg/mL

inhibition at 0.01 µM ([3]; Testkonzentration 10^-8 Mol/l): 85%
inhibition at 0.001 µM ([3]; Testkonzentration 10^-9 Mol/l): 47%
MIC (Pen.notatum CBS 19746; CBS19746, Pen., Sabouraud-Bouillon, 2 bis 4 Tage bei 26°C, read-out: MHK): 128 µg/mL
MIC ([4]; ATCC9080, Sacc., Sabouraud-Bouillon, 2 bis 4 Tage bei 26°C, read-out: MHK): 512 µg/mL
MIC (Rhod. rubra 49; Rhod., Sabouraud-Bouillon, 2 bis 4 Tage bei 26°C): 64 µg/mL
MIC (Asp. niger ATCC 16404; ATCC16404, Asp., Sabouraud-Bouillon, 2 bis 4 Tage bei 26°C, read-out: MHK): 64 µg/mL
MIC ([5]; ATCC9129, Trich., Sabouraud-Bouillon, 2 bis 4 Tage bei 26°C, read-out: MHK): 4 µg/mL
MIC ([6]; ATCC10231, Cand., Sabouraud-Bouillon, 2 bis 4 Tage bei 26°C, read-out: MHK): 256 µg/mL
Compound: CN(C)Cc1ccc(CC2CCN(C(=O)OCc3ccccc3)CC2)cc1.Cl [Verbindung I, N-Benzyloxycarbonyl-4-[4-(dimethylaminomethyl)benzyl]-piperidin-hydrochlorid]
Gesamtcholesterol ([1]; Dosis 47.1 mg/kg/Tag): -23.1%
HDL-Cholesterol ([1]; Dosis 47.1 mg/kg/Tag): -17.6%
β-Lipoprotein-Cholesterol ([1]; Dosis 47.1 mg/kg/Tag): -32.9%
2,3-Epoxysqualen-Konzentration in der Leber (Ratte) ([2]; c = 0.1 mg/kg, t = 3 h): 1.0 µg/g
2,3-Epoxysqualen-Konzentration in der Leber (Ratte) ([2]; c = 1.0 mg/kg, t = 3 h): 26.1 µg/g
2,3-Epoxysqualen-Konzentration in der Leber (Ratte) ([2]; c = 1.0 mg/kg, t = 8 h): 10.0 µg/g
